Measured values as given in patent publication US20130059385A1, “METHODS OF GENERATING PLURIPOTENT STEM CELLS” (THE SCRIPPS RESEARCH INSTITUTE, priority 2010, published 2013).

How the values were obtained:
[1] = system: MEF cells; settings: cited from earlier work
[2] = system: Neural progenitor cells (NPCs); settings: NPC reprogramming, Shi et al. 2008; cited from earlier work
[3] = system: MEFs transduced with Oct4, Sox2 and Klf4; test: Reprogramming of MEFs transduced by Oct4, Sox2 and Klf4 (AP-positive / Oct4-GFP-positive colonies); format: cell-based, mouse
Source text: FIG. 1. CHIR99021 promoted the reprogramming of MEFs transduced by Oct4, Sox2 and Klf4. MEFs from 129 strain were transduced with Oct4, Sox2 and Klf4 by retroviruses, and treated the next day with increasing concentrations of CHIR99021 for two week. Three weeks later, AP was detected by staining cells in monolayer (A). […] After 3 weeks of treatment, the GFP positive colonies in each well were counted (B).
Cell Culture and Viral Transduction: MEFs were derived from 12952/SvPasCrlf and ROSA26^+/−/OG2^+/− mice according to the protocol reported on WiCell Research Institute website: “Introduction to human embryonic stem cell culture methods”. ROSA26^+/−/OG2^+/− transgenic mice carry GFP reporter gene under the control of the Oct4 promoter (Oct4-GFP) and the ubiquitously expressed neo/lacZ transgene [Do J T, Scholer H R, Stem Cells, 22:941-949 (2004)]. Animal experiments were performed according to the Animal Protection Guidelines of the Max Planck Institute for Biomolecular Research, Germany. […] MEFs transduced with Oct4/Klf4/Sox2 (1×10^4 cells/well together with 10^5 cells/well CF1 feeders in 6-well plates) were then treated with GSK-3 inhibitor CHIR99021 (Stemgent) for two weeks, and EGFP positive colonies were picked up at the third week after treatment. MEFs transduced with Oct4/Klf4 (1×10^5 cells/well in 6-well plates) were treated with 10 μM CHIR99021 for four weeks, GFP positive colonies were picked up and expanded at the fourth to fifth week after treatment.
Cytochemistry and Immunofluorescence Assay: Alkaline Phosphatase staining was performed according to the manufacturer's protocol using the Alkaline Phosphatase Detection Kit (Millipore). For immunofluorescence assay, cells were fixed in 4% paraformaldehyde for 10 minutes and washed three times with PBS containing 0.1% Triton X-100 (Sigma-Aldrich). The fixed cells were then incubated in blocking buffer, 0.1% Triton X-100 and 10% normal donkey serum (Jackson ImmunoResearch Laboratories Inc) in PBS (Invitrogen/Gibco BRL), for 30 min at room temperature. […]

[4] = system: Sox2 and Oct4 expression in MEFs; test: Real-time PCR of pluripotency gene expression in untransduced MEFs after treatment; format: cell-based, mouse; settings: 10 μM CHIR99021, three days
Source text: FIG. 2. […] Scale bars, 20μm. […] PCR analysis: […] The primer for viral Klf4 was [NT] and [NT]. The primer for FGF-4 was [NT] and [NT].

Nc1ncn([C@@H]2O[C@H](CO)[C@@H](O)[C@H]2O)c(=O)n1 [5-AZA]
improvement of reprogramming efficiency [1]: up to 4 folds

COc1cc2nc(N3CCCN(C)CC3)nc(NC3CCN(Cc4ccccc4)CC3)c2cc1OC [BIX-01294]
enhancement of reprogramming efficiency [2]: over 8 fold

Cc1c[nH]c(-c2cnc(NCCNc3ccc(C#N)cn3)nc2-c2ccc(Cl)cc2Cl)n1 [CHIR99021]
concentration showing the greatest effects on reprogramming ([3]; Oct4/Sox2/Klf4-transduced ROSA26+/-/OG2+/- MEFs): about 10 μM
reprogramming efficiency (GFP-positive colonies) of transduced MEFs ([3]; about 10 μM CHIR99021, treated two weeks, counted after 3 weeks, without compound 0.03-0.08%): 0.2-0.4%
number of AP-positive mESC-like colonies ([3]; treated two weeks, AP staining at third week after treatment): significantly increased the number of alkaline phosphase (AP)-positive mESC-like colonies in a dose-dependent manner
induction of Sox2 and Oct4 expression in MEFs (real-time PCR) [4]: did not induce the expression of Sox2 and Oct4
